Key:
BRSK1 = molecular target: T1, BRSK1 (Homo sapiens, UniProt Q8TDC3); test: Recombinant AMPK family kinase assay, BRSK1; format: biochemical; settings: recombinant kinases
T1 sequence (Q8TDC3 1-778): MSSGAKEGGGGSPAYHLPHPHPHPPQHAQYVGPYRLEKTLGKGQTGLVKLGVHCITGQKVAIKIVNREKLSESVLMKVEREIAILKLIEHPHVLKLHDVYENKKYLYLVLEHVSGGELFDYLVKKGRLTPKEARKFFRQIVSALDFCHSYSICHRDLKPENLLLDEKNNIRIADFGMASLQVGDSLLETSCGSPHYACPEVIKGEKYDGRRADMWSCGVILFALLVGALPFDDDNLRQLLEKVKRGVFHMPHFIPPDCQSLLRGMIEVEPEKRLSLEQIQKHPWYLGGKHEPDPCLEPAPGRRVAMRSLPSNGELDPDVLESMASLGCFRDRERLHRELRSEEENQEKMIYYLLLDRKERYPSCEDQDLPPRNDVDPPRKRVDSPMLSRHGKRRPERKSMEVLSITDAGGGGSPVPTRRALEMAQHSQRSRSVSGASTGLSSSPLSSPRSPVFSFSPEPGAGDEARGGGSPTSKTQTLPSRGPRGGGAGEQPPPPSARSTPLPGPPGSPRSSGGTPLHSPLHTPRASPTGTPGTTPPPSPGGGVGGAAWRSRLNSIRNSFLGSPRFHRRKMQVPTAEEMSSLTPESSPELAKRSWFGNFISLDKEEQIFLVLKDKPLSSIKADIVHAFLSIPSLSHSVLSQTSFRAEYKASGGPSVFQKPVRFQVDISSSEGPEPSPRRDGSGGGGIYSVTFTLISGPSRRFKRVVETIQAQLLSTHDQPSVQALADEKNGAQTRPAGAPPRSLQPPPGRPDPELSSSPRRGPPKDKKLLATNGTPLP
Protocol: (§1) […] assays were performed with recombinant protein of the indicated mitotic kinase (left) and AMPK family kinases (right) in the presence of THZ-4-63-1. […] Cells were treated with nocodazole (100 ng/ml) for 18 h or not treated (Asyn., asynchronous). Nocodazole-arrested mitotic cells (M) were isolated via shake-off. The attached cells enriched in G2 phase (G2) were harvested. A portion of the mitotic cells were washed off nocodazole and released into G1 phase after 4 hours of incubation (G1). […] In Panel D, mitotic lysates were prepared from the indicated cells, and treated with λ-phosphatase at 30° C. In Panel E, nocodazole-arrested mitotic cells were treated with increasing concentration of THZ-4-63-1 for 30 min. Cell lysates were subjected to immunoblotting.
(§2) To discover a selective MELK inhibitor, a few molecule scaffolds with the potential of binding to MELK were identified, including 2,4-disubstituted pyrimidines and benzonaphthyridinones. […] To investigate if THZ-4-63-1 confers selective inhibition on MELK, we tested its effect on other mitotic kinases. In assays using recombinant kinases, MELK kinase activity was 20-fold more sensitive to THZ-4-63-1, than that of Aurora A, Aurora B, CDK1, or PLK1 (FIG. 1B).

[1] = tested on: metaphase chromosome alignment; test: Metaphase chromosome alignment, immunofluorescence after MG132; format: cell-based; settings: 5 μM for 4 h followed by MG132 (10 μM) 1 h
Protocol: (§3) U2OS-GFP-H2B cells were treated with vehicle control (0.02% DMSO, v/v) or 1 μM THZ-4-63-1, and subjected to live imaging. Time is given in hours:minutes, relative to the initial time of drug treatment. The arrow points to chromosomes that haven't incorporated into the metaphase plate. […] MDA-MB-468 cells expressing tet-on-shMELK and GFPH2B cells were treated with doxycycline for three days, before subjected to live imaging. Panel D contains images of immunoblotting of lysates from cells treated as in Panel C. Panel E contains images showing mitotic cell death in a cell treated with THZ-4-63-1. The table indicates the quantification of cell death events. Panel F contains images showing that treatment with THZ-4-63-1 impairs chromosome alignment. Cells were treated with DMSO control, or THZ-4-63-1 (5 μM) for 4 hours, followed by MG132 (10 μM) for 1 h. Cells were fixed and stained with anti-CREST, anti-α-tubulin, and DAPI to visualize chromosomes and kinetochores. The histogram indicates the quantifications of cells in metaphase with misaligned chromosomes.
Indeed, we observed in asynchronized cells that MELK inhibition caused the appearance of scatted chromosome near the metaphase plate (arrowed, FIG. 2A). […]

Aurora A = molecular target: T2, Aurora A (Homo sapiens, UniProt O14965); test: Recombinant mitotic kinase assay, Aurora A; format: biochemical; settings: recombinant kinases
T2 sequence (O14965 1-403): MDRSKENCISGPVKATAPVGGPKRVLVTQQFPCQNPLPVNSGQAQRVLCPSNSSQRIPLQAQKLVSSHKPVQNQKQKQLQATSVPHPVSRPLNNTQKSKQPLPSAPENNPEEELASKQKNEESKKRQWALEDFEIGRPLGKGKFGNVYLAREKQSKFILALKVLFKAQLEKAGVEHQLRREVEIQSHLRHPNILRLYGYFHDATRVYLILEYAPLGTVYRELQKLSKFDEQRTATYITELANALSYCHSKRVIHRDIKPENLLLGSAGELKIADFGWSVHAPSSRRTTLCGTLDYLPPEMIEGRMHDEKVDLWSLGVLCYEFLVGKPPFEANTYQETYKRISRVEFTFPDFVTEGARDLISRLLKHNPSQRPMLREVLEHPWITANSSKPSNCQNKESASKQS
Protocol: as §1, §2

MDA-MB-468 cells = test: Live imaging of chromosome alignment in MDA-MB-468 GFP-H2B cells; format: cell-based, human; settings: 1 μM
Protocol: MDA-MB-468 cells stably expressing GFP-H2B were treated with vehicle control, or 1 μM THZ-4-63-1, and immediately subjected to live imaging. Time given in hours:minutes, relative to the starting point of treatment. […] Each dot represent an individual mitotic event.
To utilize this novel compound for probing the roles of MELK in mitosis, we first treated asynchronized U2OS cells with THZ-4-63-1 (1 μM), and subjected the cells for live-cell imaging. The fusion protein GFP-Histone H2B was stably introduced into the cells to facilitate observing chromosome dynamics^2,7. […] MELK inhibition also delayed mitotic progression in human breast cancer cell line, MDA-MB-468 (FIG. 6). […] Together, these findings indicate that MELK is novel regulator for the normal progression of mitosis, and that inactivation or depletion of MELK induces a metaphase-like arrest in cancer cells.

mitotic cells = test: Mitotic cell death, time-lapse imaging; format: cell-based
Protocol: as §3
Perturbation of normal mitotic kinetic can lead to various cellular outcomes including cell death.

CN(C)Cc1ccc(-n2c(=O)ccc3cnc4ccc(-c5cc(Cl)c(O)c(Cl)c5)cc4c32)cc1 [THZ-4-63-1]
Selectivity for MELK over BRSK1 (BRSK1): preferentially targets MELK
Cells with failure in metaphase chromosome alignment [1]: approximately 80%
MELK kinase activity more sensitive than that of Aurora A (Aurora A): 20 fold
Chromosome alignment (MDA-MB-468 cells): inhibits chromosome alignment
Mitotic cell death (mitotic cells): efficiently induced mitotic cell death

Reference: US10544138B2, “Tricyclic kinase inhibitors of MELK and methods of use” (Dana-Farber Cancer Institute, Inc., priority 2015, dated 2020)
